Source: patent publication US20260200939A1, “MOLECULAR GLUE DEGRADER COMPOUNDS AND USES THEREOF” (Novartis AG, priority 2022, published 2026)

Columns and labels:
Recombinant RNF126 = molecular target: T1, Recombinant RNF126 (Homo sapiens, UniProt Q9BV68); assay: RNF126 Binding Assay, gel-based ABPP
T1 construct: FLAG (C); host or cells: HEK293T
Outline: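 FLAG-tagged human RNF126, expressed in HEK293T and purified on anti-FLAG resin, was pretreated with DMSO or covalent ligand for 30 min at 37 °C in PBS. IA-rhodamine was then added for 1 h at RT in the dark. Probe labelling was read by SDS-PAGE in-gel fluorescence.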

[1] = molecular target: T2, cysteine 32 (C32) on the RING-family E3 ubiquitin ligase RNF126 (Homo sapiens, UniProt Q9BV68); assay: isoTOP-ABPP chemoproteomic profiling in C33A cells; type: cell-based; conditions: C33A cells treated in situ
T2 construct: endogenous in cells; host or cells: C33A
Method: IsoTOP-ABPP studies were done as previously reported (Weerapana, E. et al. Nature 468, 790-795 (2010); Spradlin, J. N. et al. Nat. Chem. Biol. 15, 747-755 (2019); Grossman, E. A. et al. Cell Chem. Biol. 24, 1368-1376.e4 (2017)). All of the isoTOP-ABPP datasets were prepared as described below using the IA-alkyne probe. Cells were lysed by probe sonication in PBS and protein concentrations were measured by BCA assay. Cells were treated for 2 h with either DMSO vehicle or compound before cell collection and lysis. Proteomes were subsequently labeled with IA-alkyne labeling (200 μM) for 1 h at room temperature. CuAAC was used by sequential addition of tris(2-carboxyethyl)phosphine (1 mM, Strem, 15-7400), tris[(1-benzyl-1H-1,2,3-triazol-4-yl)methyl]amine (34 μM, Sigma, 678937), copper(II) sulfate (1 mM, Sigma, 451657) and biotin-linker-azide—the linker functionalized with a tobacco etch virus (TEV) protease recognition sequence as well as an isotopically light or heavy valine for treatment of control or treated proteome, respectively. After CuAAC, proteomes were precipitated by centrifugation at 6,500 g, washed in ice-cold methanol, combined in a 1:1 control:treated ratio, washed again, then denatured and resolubilized by heating in 1.2% SDS-PBS to 90° C. for 5 min. Insoluble components were precipitated by centrifugation at 6,500 g and soluble proteome was diluted in 5 ml 0.2% SDS-PBS. […]

pure RNF126 protein = molecular target: T3, pure RNF126 protein (Homo sapiens, UniProt Q9BV68); assay: Mass spectrometry analysis of compound-labeled RNF126 tryptic digests; type: binding
T3 construct: FLAG (C); host or cells: HEK293T
T3 sequence (Q9BV68 whole entry): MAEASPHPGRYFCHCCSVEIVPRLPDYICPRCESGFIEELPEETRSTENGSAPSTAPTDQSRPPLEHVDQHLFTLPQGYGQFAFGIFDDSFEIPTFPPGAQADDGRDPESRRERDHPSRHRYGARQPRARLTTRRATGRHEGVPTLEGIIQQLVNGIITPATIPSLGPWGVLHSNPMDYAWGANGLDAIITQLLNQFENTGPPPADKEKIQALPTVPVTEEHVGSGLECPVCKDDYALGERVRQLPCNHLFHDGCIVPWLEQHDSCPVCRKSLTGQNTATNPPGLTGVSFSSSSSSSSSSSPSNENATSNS

CDK4 = molecular target: T4, CDK4 (Homo sapiens, UniProt P11802); assay: RNF126 knockdown study of CDK4 degradation in C33A cells; type: cell-based
T4 construct: endogenous in cells; host or cells: C33A
Method: Proteins were resolved by SDS/PAGE and transferred to nitrocellulose membranes using the Trans-Blot Turbo transfer system (Bio-Rad). Membranes were blocked with 5% BSA in Tris-buffered saline containing Tween 20 (TBS-T) solution for 30 min at RT, washed in TBS-T, and probed with primary antibody diluted in recommended diluent per manufacturer overnight at 4° C. After 3 washes with TBS-T, the membranes were incubated in the dark with IR680- or IR800-conjugated secondary antibodies at 1:10,000 dilution in 5% BSA in TBS-T at RT for 1 h. After 3 additional washes with TBST, blots were visualized using an Odyssey Li-Cor fluorescent scanner. The membranes were stripped using ReBlot Plus Strong Antibody Stripping Solution (EMD Millipore) when additional primary antibody incubations were performed. Antibodies used in this study were CDK4 (Abcam ab108357), Vinculin (Abcam ab129002), GAPDH (Cell Signaling Technology 14C10), RNF126 (Santa Cruz Biotechnology sc-376005), BRD4 (Abcam ab128874), Beta Actin (Cell Signaling Technology 13E5), PDE5 (Abcam ab259945), AR-V7 (Abcam ab273500), c-Abl (Santa Cruz Biotechnology sc-23), SMARCA2 (Abcam ab240648), LRRK2 (Abcam ab133474), BTK (Cell Signaling Technology D3H5), Androgen Receptor (Abcam ab133273).
Short-hairpin oligonucleotides were used to knock down the expression of RNF126 in C33A cells. […]

BCR-ABL = molecular target: T5, BCR-ABL (Homo sapiens, UniProt P00519); assay: BCR-ABL degradation, Western blotting; type: cell-based
T5 construct: BCR (N-terminal part of P11274, natural fusion partner); endogenous in cells; host or cells: K562 (inferred); the other entry of the earlier key: BCR (P11274, Breakpoint cluster region protein)
T5 sequence (P00519 with tags, fused parts or gaps): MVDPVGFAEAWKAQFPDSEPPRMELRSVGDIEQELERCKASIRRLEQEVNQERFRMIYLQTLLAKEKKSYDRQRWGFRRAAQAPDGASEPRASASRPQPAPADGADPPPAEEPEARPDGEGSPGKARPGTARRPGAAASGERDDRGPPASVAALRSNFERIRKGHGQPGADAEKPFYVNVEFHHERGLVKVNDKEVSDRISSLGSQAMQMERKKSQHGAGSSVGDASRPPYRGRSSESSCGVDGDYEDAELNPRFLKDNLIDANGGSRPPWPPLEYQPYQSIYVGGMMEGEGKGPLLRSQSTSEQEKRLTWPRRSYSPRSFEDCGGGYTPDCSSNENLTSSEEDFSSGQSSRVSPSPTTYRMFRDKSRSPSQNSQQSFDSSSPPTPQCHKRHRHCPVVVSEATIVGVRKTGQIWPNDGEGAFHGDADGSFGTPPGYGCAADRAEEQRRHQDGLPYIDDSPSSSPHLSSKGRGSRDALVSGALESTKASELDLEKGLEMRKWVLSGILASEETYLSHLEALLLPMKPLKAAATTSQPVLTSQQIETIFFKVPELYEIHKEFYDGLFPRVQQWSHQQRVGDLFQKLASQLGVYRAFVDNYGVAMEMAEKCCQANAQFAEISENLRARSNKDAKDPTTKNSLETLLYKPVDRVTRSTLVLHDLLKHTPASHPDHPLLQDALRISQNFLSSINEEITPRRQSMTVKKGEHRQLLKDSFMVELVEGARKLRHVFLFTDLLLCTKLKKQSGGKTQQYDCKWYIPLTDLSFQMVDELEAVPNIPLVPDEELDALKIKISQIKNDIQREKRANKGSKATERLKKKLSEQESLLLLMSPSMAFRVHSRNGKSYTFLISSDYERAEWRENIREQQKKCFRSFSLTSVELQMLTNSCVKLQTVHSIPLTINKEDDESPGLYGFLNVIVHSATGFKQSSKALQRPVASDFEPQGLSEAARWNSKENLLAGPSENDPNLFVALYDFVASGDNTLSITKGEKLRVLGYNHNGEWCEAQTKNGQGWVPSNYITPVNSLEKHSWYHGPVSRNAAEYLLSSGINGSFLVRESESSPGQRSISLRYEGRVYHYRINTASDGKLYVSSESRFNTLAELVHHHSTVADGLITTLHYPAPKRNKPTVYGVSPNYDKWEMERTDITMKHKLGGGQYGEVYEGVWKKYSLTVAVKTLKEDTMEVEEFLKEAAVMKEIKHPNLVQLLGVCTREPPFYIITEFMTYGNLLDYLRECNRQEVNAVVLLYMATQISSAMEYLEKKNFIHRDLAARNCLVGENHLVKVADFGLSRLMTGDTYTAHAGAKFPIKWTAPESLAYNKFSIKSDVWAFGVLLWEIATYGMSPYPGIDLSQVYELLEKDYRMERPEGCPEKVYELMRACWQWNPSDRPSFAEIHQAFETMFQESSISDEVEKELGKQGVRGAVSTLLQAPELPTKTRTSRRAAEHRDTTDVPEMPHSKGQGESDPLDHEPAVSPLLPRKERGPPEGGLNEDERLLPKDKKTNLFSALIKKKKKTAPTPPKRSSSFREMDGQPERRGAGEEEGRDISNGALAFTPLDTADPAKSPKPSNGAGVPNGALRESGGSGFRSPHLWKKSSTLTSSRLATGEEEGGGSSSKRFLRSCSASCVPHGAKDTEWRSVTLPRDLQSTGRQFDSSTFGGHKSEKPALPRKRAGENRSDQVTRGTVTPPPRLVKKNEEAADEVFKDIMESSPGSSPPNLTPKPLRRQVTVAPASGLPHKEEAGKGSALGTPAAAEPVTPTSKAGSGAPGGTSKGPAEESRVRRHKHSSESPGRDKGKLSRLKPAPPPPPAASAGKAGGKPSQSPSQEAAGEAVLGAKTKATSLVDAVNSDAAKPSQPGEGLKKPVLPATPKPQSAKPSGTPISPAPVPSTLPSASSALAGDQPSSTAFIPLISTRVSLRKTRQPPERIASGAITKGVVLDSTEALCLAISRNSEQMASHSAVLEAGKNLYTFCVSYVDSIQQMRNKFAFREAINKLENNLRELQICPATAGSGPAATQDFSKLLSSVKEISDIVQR
Method: (§1) C33A cells were purchased from American Type Culture Collection (ATCC) and were cultured in Dulbecco's Modified Eagle Medium (DMEM) containing 10% (v/v) fetal bovine serum (FBS) and maintained at 37° C. with 5% CO2. 22RV1 cells were purchased from the ATCC and were cultured in RPMI-1640 Medium containing 10% (v/v) FBS and maintained at 37° C. with 5% CO2. HEK293T cells were obtained from the UC Berkeley Cell Culture Facility and were cultured in DMEM containing 10% (v/v) FBS and maintained at 37° C. with 5% CO2. K562 cells were obtained from the UC Berkeley Cell Culture Facility and were cultured in Iscove's Modified Dulbecco's Medium (IMDM) containing 10% (v/v) FBS and maintained at 37° C. with 5% CO2. MV-4-11 cells were obtained from the ATCC and were cultured in IMDM containing 10% (v/v) FBS and maintained at 37° C. with 5% CO2. A549 cells were obtained from the ATCC and were cultured in F-12K Medium containing 10% (v/v) FBS and maintained at 37° C. with 5% CO2. Mino cells were obtained from the ATCC and were cultured in RPMI-1640 Medium containing 10% (v/v) FBS and maintained at 37° C. with 5% CO2. […]
(§2) Cells were washed twice with cold PBS, scraped, and pelleted by centrifugation (700 g, 5 min, 4° C.). […] Proteome concentrations were determined using BCA assay and lysate was diluted to appropriate working concentrations. […]

c-ABL kinase = molecular target: T6, c-ABL kinase (Homo sapiens, UniProt P00519); assay: c-ABL degradation, Western blotting; type: cell-based
T6 construct: endogenous in cells; host or cells: K562 (inferred)
T6 sequence (P00519 whole entry): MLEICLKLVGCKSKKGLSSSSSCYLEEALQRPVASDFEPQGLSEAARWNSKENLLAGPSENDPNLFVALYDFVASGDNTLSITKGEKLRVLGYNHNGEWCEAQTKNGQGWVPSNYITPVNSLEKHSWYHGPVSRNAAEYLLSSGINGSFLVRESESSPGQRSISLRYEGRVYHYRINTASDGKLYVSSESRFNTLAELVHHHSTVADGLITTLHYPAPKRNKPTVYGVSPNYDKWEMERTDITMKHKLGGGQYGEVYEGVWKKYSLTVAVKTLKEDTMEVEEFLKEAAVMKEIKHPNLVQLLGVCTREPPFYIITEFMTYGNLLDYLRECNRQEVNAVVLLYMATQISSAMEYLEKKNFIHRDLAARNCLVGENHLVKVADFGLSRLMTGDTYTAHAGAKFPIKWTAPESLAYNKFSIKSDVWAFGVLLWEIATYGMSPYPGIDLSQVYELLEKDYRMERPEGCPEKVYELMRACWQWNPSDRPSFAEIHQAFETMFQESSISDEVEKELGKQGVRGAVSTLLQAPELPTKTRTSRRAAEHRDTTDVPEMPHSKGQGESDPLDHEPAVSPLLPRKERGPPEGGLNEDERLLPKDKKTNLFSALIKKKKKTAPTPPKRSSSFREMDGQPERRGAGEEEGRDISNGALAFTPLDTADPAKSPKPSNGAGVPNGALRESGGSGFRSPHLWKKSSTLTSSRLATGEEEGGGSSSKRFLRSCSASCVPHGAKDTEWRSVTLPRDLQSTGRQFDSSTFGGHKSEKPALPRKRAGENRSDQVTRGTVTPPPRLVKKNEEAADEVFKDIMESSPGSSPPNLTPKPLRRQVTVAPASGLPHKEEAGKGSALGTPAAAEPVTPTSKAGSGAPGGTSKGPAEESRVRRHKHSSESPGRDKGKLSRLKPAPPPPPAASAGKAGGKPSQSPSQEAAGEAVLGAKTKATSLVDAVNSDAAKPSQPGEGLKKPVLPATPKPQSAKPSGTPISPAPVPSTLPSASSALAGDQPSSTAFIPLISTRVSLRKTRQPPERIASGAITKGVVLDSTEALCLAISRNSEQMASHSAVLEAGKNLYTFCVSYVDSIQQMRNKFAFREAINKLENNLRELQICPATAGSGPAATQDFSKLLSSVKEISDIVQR
Method: as §1, §2

PDE5 = molecular target: T7, PDE5 (Homo sapiens, UniProt O76074); assay: PDE5 degradation in HEK293T cells, Western blotting; type: cell-based
T7 construct: endogenous in cells; host or cells: HEK293T
Method: as §1, §2

LRRK2 = molecular target: T8, LRRK2 (Homo sapiens, UniProt Q5S007); assay: LRRK2 loss in A549 lung cancer cells, Western blotting; type: cell-based
T8 construct: endogenous in cells; host or cells: A549
Method: as §1, §2

T1 sequence (Q9BV68 whole entry): as the sequence (Q9BV68 whole entry) above

Compound: CN(C)C(=O)c1cc2cnc(Nc3ccc(N4CCN(C(=O)/C=C/c5ccc(C(F)(F)F)cc5)CC4)cn3)nc2n1C1CCCC1 [Compound 106]
- binding to RNF126 (gel-based ABPP), in words (Recombinant RNF126): confirms the interaction of Compound 106 with RNF126
- cysteine engaged across the proteome (isoTOP-ABPP) [1]: covalently binds to cysteine 32 (C32)
- adduct on RNF126 by mass spectrometry of tryptic digests (pure RNF126 protein): mass adduct of Compound 106 on pure RNF126 protein is observed
- effect of RNF126 knockdown on compound-mediated CDK4 degradation (CDK4): completely attenuated

Compound: COc1ccc(C(=O)/C=C/C(=O)N2CCN(c3cc(Nc4ncc(C(=O)Nc5c(C)cccc5Cl)s4)nc(C)n3)CC2)cc1 [Compound 126]
- binding to RNF126 (gel-based ABPP), in words (Recombinant RNF126): potent binding
- degradation of BCR-ABL, in words (BCR-ABL): degradation of both BCR-ABL and c-ABL kinase in a dose-responsive manner
- degradation of c-ABL kinase, in words (c-ABL kinase): degradation of both BCR-ABL and c-ABL kinase in a dose-responsive manner

Compound: CCCc1nn(C)c2c(=O)[nH]c(-c3cc(S(=O)(=O)N4CCN(C(=O)/C=C/C(=O)c5ccc(OC)cc5)CC4)ccc3OCC)nc12 [Compound 127]
- binding to RNF126 (gel-based ABPP), in words (Recombinant RNF126): potent binding
- degradation of PDE5, in words (PDE5): degradation of PDE5 in HEK293T cells in a dose-responsive and proteasome-dependent manner

Compound: CNc1nc(Nc2ccc(C(=O)N3CCN(C(=O)/C=C/C(=O)c4ccc(OC)cc4)CC3)cc2OC)ncc1Cl [Compound 129]
- binding to RNF126 (gel-based ABPP), in words (Recombinant RNF126): potent binding
- loss of LRRK2, in words (LRRK2): loss of LRRK2 in A549 lung cancer cells in a dose-responsive manner
